In ChEMBL document CHEMBL3046463, “Antihepatotoxic, nephroprotective, and antioxidant activities of phenolic compounds from Satureja macrostema leaves against carbon tetrachloride-induced hepatic damage in mice” (Med Chem Res, 2013):
≈ marks a conversion by molar mass, not a printed value.

Legend:
Format in all cases: functional
[1] = Antioxidant activity assessed as inhibition of H2O2/Fe2+-induced radical generation
[2] = Antioxidant activity assessed as superoxide radical scavenging activity
[3] = tested on: Radical scavenging activity; test: Antioxidant activity assessed as DPPH free radical scavenging activity
[4] = tested on: Mus musculus; test: Nephroprotective activity in CD1 Mus musculus (mouse) assessed as reduction of CCl4-induced plasma creatinine level at 20 mg/kg, po administered 30 min before and 3 hr after CCl4 challenge measured 48 hr post CCl4 challenge (reference value: 1.2 +/- 0.006 mg/dl)
[5] = tested on: Mus musculus; test: Hepatoprotective activity in CD1 Mus musculus (mouse) assessed as reduction of CCl4-induced serum aspartate aminotransferase level at 20 mg/kg, po administered 30 min before and 3 hr after CCl4 challenge measured 48 hr post CCl4 challenge (reference value: 487.3 +/- 6.21 IU/l)
[6] = tested on: Mus musculus; test: Hepatoprotective activity in CD1 Mus musculus (mouse) assessed as reduction of CCl4-induced total cholesterol level in serum at 20 mg/kg, po administered 30 min before and 3 hr after CCl4 challenge measured 48 hr post CCl4 challenge (reference value: 172.57 +/- 4.36 md/dl)
[7] = tested on: Mus musculus; test: Hepatoprotective activity in CD1 Mus musculus (mouse) intoxicated with CCl4 assessed as increase in total protein level in serum at 20 mg/kg, po administered 30 min before and 3 hr after CCl4 challenge measured 48 hr post CCl4 challenge (reference value: 61.80 +/- 5.48 g/l)
[8] = tested on: Mus musculus; test: Hepatoprotective activity in CD1 Mus musculus (mouse) assessed as reduction of CCl4-induced serum alkaline phosphatase level at 20 mg/kg, po administered 30 min before and 3 hr after CCl4 challenge measured 48 hr post CCl4 challenge (reference value: 239.1 +/- 5.98 IU/l)
[9] = tested on: Mus musculus; test: Nephroprotective activity in CD1 Mus musculus (mouse) assessed as reduction of CCl4-induced plasma urea level at 20 mg/kg, po administered 30 min before and 3 hr after CCl4 challenge measured 48 hr post CCl4 challenge (reference value: 61.56 +/- 3.46 mg/dl)
[10] = tested on: Mus musculus; test: Hepatoprotective activity in CD1 Mus musculus (mouse) assessed as reduction of CCl4-induced serum alanine aminotransferase level at 20 mg/kg, po administered 30 min before and 3 hr after CCl4 challenge measured 48 hr post CCl4 challenge (reference value: 296 +/- 7.93 IU/l)

Structure (SMILES) | IC50 [1] | IC50 [2] | IC50 [3] | Activity [4] | Activity [5] | Activity [6] | Activity [7] | Activity [8] | Activity [9] | Activity [10]
O=c1c(O)c(-c2ccc(O)c(O)c2)oc2cc(O)cc(O)c12 [QUERCETIN] | 14.6 µg/mL (≈ 48.3 µM) | 20.1 µg/mL (≈ 66.5 µM) | 8.2 µg/mL (≈ 27.1 µM) |  |  |  |  |  |  | 
C[C@H]1O[C@@H](Oc2cc(O)c3c(c2)O[C@H](c2cc(O)c(O)c(O)c2)CC3=O)[C@@H](O)[C@@H](O)[C@@H]1O | 18.2 µg/mL (≈ 40.4 µM) | 25.8 µg/mL (≈ 57.3 µM) | 9.3 µg/mL (≈ 20.6 µM) | 0.76 mg/dL | 145.7 IU/L | 124.34 mg/dL | 76.1 g/L | 118.1 IU/L | 51.1 mg/dL | 103.4 IU/L
COc1c(O)cc([C@H]2Oc3cc(O)cc(O)c3C(=O)[C@@H]2O[C@@H]2O[C@H](C)[C@@H](O)[C@H](O)[C@@H]2O[C@@H]2O[C@H](C)[C@@H](O)[C@H](O)[C@@H]2O)cc1O | 22.4 µg/mL (≈ 35.8 µM) | 30.4 µg/mL (≈ 48.5 µM) | 17.5 µg/mL (≈ 27.9 µM) | 0.74 mg/dL | 161.6 IU/L | 129.31 mg/dL | 74.76 g/L | 128.3 IU/L | 49.43 mg/dL | 115.1 IU/L
COc1ccc(-c2oc3cc(O[C@@H]4O[C@H](CO)[C@@H](O)[C@H](O[C@@H]5O[C@@H](C)[C@H](O)[C@@H](O)[C@H]5O)[C@H]4O)c(OC)c(O)c3c(=O)c2OC)cc1 | 36.42 µg/mL (≈ 55.8 µM) | 43.12 µg/mL (≈ 66.1 µM) | 24.8 µg/mL (≈ 38 µM) | 0.67 mg/dL | 219.4 IU/L | 143.28 mg/dL | 68.23 g/L | 156.5 IU/L | 44.78 mg/dL | 152.4 IU/L
COc1cc(O)cc2c1C(=O)[C@H](O[C@@H]1O[C@H](C)[C@@H](O)[C@H](O)[C@@H]1O)[C@@H](c1cc(O)c(OC)c(O)c1)O2 | 26.7 µg/mL (≈ 54 µM) | 35.2 µg/mL (≈ 71.2 µM) | 11.6 µg/mL (≈ 23.5 µM) | 0.71 mg/dL | 189.4 IU/L | 136.8 mg/dL | 71.57 g/L | 137.5 IU/L | 47.26 mg/dL | 124.2 IU/L
COc1ccc([C@@H]2CC(=O)c3c(OC)cc(O[C@@H]4O[C@H](C)[C@@H](O)[C@H](O)[C@@H]4O)cc3O2)cc1O | 32.7 µg/mL (≈ 70.7 µM) | 39.76 µg/mL (≈ 86 µM) | 21.4 µg/mL (≈ 46.3 µM) | 0.69 mg/dL | 200.6 IU/L | 140.13 mg/dL | 70.24 g/L | 149.6 IU/L | 46.62 mg/dL | 143.6 IU/L
